The values that follow come from ChEMBL document CHEMBL1201862, “PubChem BioAssay data set” (2004).

SMILES strings stand for the structures.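 Assay format: 96-well plates, 48-hour exposure. GI50: concentration for 50% inhibition of growth.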 Calls of active or inactive are those of the source. No stated cut-off is given here; in the data, active = GI50 up to about 1.1 µM and inactive = higher.

Some test systems named below: UACC-257; ACHN; NCI-H226; U-251; OVCAR-8; HCT-15; SNB-75; HOP-62; M14; SF-539; SW-620; CCRF-CEM; Hs-578T; MDA-N; UACC-62; 786-0; LOX IMVI; SN12C; SNB-19; Malme-3M.
Holding throughout (experiment): inhibition of tumour cell growth, NCI panel, 48 h

For the compound `CSc1ccn(C2CC(F)C(CO)O2)c(=O)n1` (stereo not given), the GI50 was > 100 µM (inactive) with UACC-257; > 100 µM (inactive) in the test on ACHN; > 100 µM (inactive) in the test on NCI-H226; > 100 µM (inactive) with U-251; > 100 µM (inactive) in the test with OVCAR-8; more than 100 µM in the test with HCT-15. For the same compound, the GI50 in the test on SNB-75, with HOP-62, in the test on M14, with SF-539, in the test with SW-620 and with CCRF-CEM was > 100 µM (inactive) in each case. Also, the GI50 with Hs-578T, in the test with MDA-N, in the test with UACC-62, in the test with 786-0, in the test on LOX IMVI and in the test on SN12C was > 100 µM (inactive) in each case. Also, the GI50 in the test with SNB-19 and in the test on Malme-3M was > 100 µM (inactive) each time.
Take `CCOC(=O)CCC(C(=O)OCC)n1nnc2cc(Nc3c(C)[n+]([O-])c4cc(F)c(OCC)cc4[n+]3[O-])ccc21` (stereo not given): the GI50 in the test with UACC-257 was > 100 µM (inactive); in the test with ACHN, 52.6 µM (inactive); in the test on NCI-H226, > 100 µM (inactive); with U-251, 30.7 µM (inactive); with OVCAR-8, 87.1 µM (inactive); in the test on HCT-15 it was more than 100 µM. The GI50 is 37.4 µM (inactive) with SNB-75; 22.2 µM (inactive) in the test on HOP-62; > 100 µM (inactive) in the test with M14; 42.6 µM (inactive) in the test on SF-539; > 100 µM (inactive) in the test with SW-620; > 100 µM (inactive) in the test on CCRF-CEM. Moreover, the GI50 in the test with Hs-578T was 30.3 µM (inactive); with MDA-N it was > 100 µM (inactive); with UACC-62, > 100 µM (inactive); in the test with 786-0, 34.5 µM (inactive); in the test on LOX IMVI, > 100 µM (inactive); in the test with SN12C it was > 100 µM (inactive). Also, the values for the GI50 in the test with SNB-19 and in the test on Malme-3M were 34.8 µM (inactive) and > 100 µM (inactive), respectively.
As to `OC(COc1ccc(Cl)cc1Cl)CN1CCCC1` (stereo not given), the GI50 in the test on UACC-257 was 24.2 µM (inactive); in the test on ACHN, > 100 µM (inactive); in the test on NCI-H226, 88.7 µM (inactive); in the test with U-251, > 100 µM (inactive); with OVCAR-8, > 100 µM (inactive); in the test with HCT-15, more than 100 µM. Also, the GI50 in the test on SNB-75 was 50.6 µM (inactive); with HOP-62, > 100 µM (inactive); in the test on M14, 20 µM (inactive); with SF-539, > 100 µM (inactive); in the test on SW-620 it was > 100 µM (inactive); with CCRF-CEM it was 87.9 µM (inactive). Besides, the GI50 was 58.3 µM (inactive) with Hs-578T; 56.6 µM (inactive) in the test with MDA-N; 21.7 µM (inactive) with UACC-62; > 100 µM (inactive) in the test on 786-0; > 100 µM (inactive) in the test on LOX IMVI; > 100 µM (inactive) in the test on SN12C. Moreover, the GI50 in the test with SNB-19 was > 100 µM (inactive); with Malme-3M, 60.1 µM (inactive).
Turning to `COC(=N)C1(C#N)NC(c2ccsc2)C(C#N)(C#N)NC1c1ccsc1` (stereo not given), the GI50 is > 100 µM (inactive) in the test with UACC-257; > 100 µM (inactive) in the test with ACHN; > 100 µM (inactive) in the test on NCI-H226; > 100 µM (inactive) in the test on U-251; > 100 µM (inactive) in the test on OVCAR-8; more than 100 µM with HCT-15. For the same compound, the GI50 is 88.5 µM (inactive) with SNB-75; > 100 µM (inactive) in the test on HOP-62; > 100 µM (inactive) in the test on M14; > 100 µM (inactive) in the test on SF-539; > 100 µM (inactive) in the test with SW-620; > 100 µM (inactive) in the test on CCRF-CEM. In addition, the GI50 with Hs-578T, in the test on MDA-N, with UACC-62, in the test on 786-0, with LOX IMVI and with SN12C was > 100 µM (inactive) each time. The GI50 in the test on SNB-19 and in the test on Malme-3M was > 100 µM (inactive) each time.
With `COC1(C)CCC(OS(C)(=O)=O)CO1` (stereo not given), the GI50 with UACC-257 was > 100 µM (inactive); with ACHN, > 100 µM (inactive); with NCI-H226, > 100 µM (inactive); in the test on U-251 it was > 100 µM (inactive); with OVCAR-8 it was > 100 µM (inactive); with HCT-15 it was more than 100 µM. Further, the GI50 with SNB-75, with HOP-62, with M14, in the test on SF-539, in the test on SW-620 and in the test with CCRF-CEM was > 100 µM (inactive) in each case. The GI50 in the test on Hs-578T, in the test on MDA-N, in the test with UACC-62, in the test with 786-0, in the test with LOX IMVI and with SN12C was > 100 µM (inactive) throughout. The GI50 in the test on SNB-19 and in the test on Malme-3M was > 100 µM (inactive) each time.
With `O=c1[nH]nc(-c2ccccc2)n1-n1cnnc1`, the GI50 is > 100 µM (inactive) with UACC-257; > 100 µM (inactive) in the test on ACHN; > 100 µM (inactive) with NCI-H226; > 100 µM (inactive) with U-251; > 100 µM (inactive) in the test on OVCAR-8; more than 100 µM with HCT-15. The GI50 in the test with SNB-75, in the test on HOP-62, in the test on M14, in the test on SF-539, in the test with SW-620 and in the test with CCRF-CEM was > 100 µM (inactive) each time. Moreover, the GI50 with Hs-578T, in the test on MDA-N, with UACC-62, with 786-0, with LOX IMVI and in the test on SN12C was > 100 µM (inactive) in each case. In addition, the GI50 in the test on SNB-19 and in the test on Malme-3M was > 100 µM (inactive) throughout.
Regarding `COc1cc2c(cc1OC)[C@H]1C(=O)c3cc4c(cc3[C@H]1N(C)C2=O)OCO4`, the GI50 with UACC-257 was 6.32 µM (inactive); with ACHN, 0.682 µM (active); in the test with NCI-H226 it was 1.81 µM (inactive); in the test on U-251, 1.03 µM (active); with OVCAR-8 it was 30.4 µM (inactive); in the test with HCT-15, 14.7 µM. The GI50 with SNB-75 was 8.77 µM (inactive); with HOP-62, 5.07 µM (inactive); in the test with M14, 2.92 µM (inactive); in the test with SF-539, 3.94 µM (inactive); with SW-620 it was 2.44 µM (inactive); in the test on CCRF-CEM, 0.366 µM (active). The GI50 is > 94.6 µM (inactive) in the test on Hs-578T; 12.1 µM (inactive) in the test on MDA-N; 0.879 µM (active) with UACC-62; 4.41 µM (inactive) in the test on 786-0; 1.5 µM (inactive) with LOX IMVI; 2.83 µM (inactive) in the test with SN12C. The GI50 with SNB-19 was 6.35 µM (inactive); with Malme-3M, 7.53 µM (inactive).
As to `N=C(N)NS(=O)(=O)c1ccc(N/N=C2/CCOC2=O)cc1`, the GI50 is > 100 µM (inactive) in the test with UACC-257; 63.5 µM (inactive) in the test with ACHN; > 100 µM (inactive) in the test with NCI-H226; 41.2 µM (inactive) in the test with U-251; 49.5 µM (inactive) in the test on OVCAR-8; more than 100 µM with HCT-15. Besides, the GI50 is 21.7 µM (inactive) with SNB-75; 26.6 µM (inactive) in the test with HOP-62; > 100 µM (inactive) in the test on M14; > 100 µM (inactive) in the test with SF-539; > 100 µM (inactive) in the test on SW-620; > 100 µM (inactive) in the test with CCRF-CEM. The GI50 in the test on Hs-578T is 57.8 µM (inactive); in the test with MDA-N, > 100 µM (inactive); in the test with UACC-62, > 100 µM (inactive); in the test on 786-0, > 100 µM (inactive); with LOX IMVI, > 100 µM (inactive); with SN12C, 65.5 µM (inactive). Further, the GI50 with SNB-19 and with Malme-3M was > 100 µM (inactive) throughout.
